Experimental data from ChEMBL document CHEMBL1201862, “PubChem BioAssay data set” (2004).
Structures can show the parent of a compound that is named as a salt. Calls of active or inactive are those of the source.

What was measured:
[1] = NIH-3T3 fibroblast cytotoxicity, dose response, cytotoxicity control, cell-based, fluorescence, Alamar Blue, secondary assay (AID 2327); assay type: functional;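 also: NIH-3T3 mouse fibroblasts cultured with fluconazole at 8 µg/mL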
[2] = fluconazole-exposed Candida albicans growth modulators – fluorescence, retest, confirmation (AID 2467); assay type: functional, cell-based
[3] = target: T1, Corticotropin-releasing factor receptor 2/Corticotropin-releasing factor-binding protein (Homo sapiens, UniProt P24387+Q13324); experiment: activators of CRF receptor 2 with binding protein – uHTS hits, confirmation (AID 602473); assay type: functional; conditions: read-out: EC50_Mean
T1 sequence (Q13324 whole entry): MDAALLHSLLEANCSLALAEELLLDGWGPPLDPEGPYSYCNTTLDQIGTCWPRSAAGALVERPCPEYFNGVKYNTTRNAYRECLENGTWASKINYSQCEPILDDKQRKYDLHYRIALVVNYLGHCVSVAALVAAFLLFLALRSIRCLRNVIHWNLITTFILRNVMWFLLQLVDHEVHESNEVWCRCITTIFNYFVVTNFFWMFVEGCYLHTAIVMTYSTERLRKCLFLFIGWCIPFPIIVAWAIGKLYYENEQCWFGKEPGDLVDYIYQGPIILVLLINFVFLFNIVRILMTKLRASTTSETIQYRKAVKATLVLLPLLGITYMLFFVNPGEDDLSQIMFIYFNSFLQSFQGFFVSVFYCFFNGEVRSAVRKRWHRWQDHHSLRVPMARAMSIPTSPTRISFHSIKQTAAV
T1 sequence (P24387 whole entry): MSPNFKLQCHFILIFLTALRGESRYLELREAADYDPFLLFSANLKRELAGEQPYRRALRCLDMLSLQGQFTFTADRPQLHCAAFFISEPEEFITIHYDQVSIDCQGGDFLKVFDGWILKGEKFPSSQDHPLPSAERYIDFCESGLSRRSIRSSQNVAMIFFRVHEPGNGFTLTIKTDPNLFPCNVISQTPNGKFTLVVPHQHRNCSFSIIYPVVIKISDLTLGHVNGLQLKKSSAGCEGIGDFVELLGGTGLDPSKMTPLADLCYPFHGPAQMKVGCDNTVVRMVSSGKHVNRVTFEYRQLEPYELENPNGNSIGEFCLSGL

[4] = target: T1, Corticotropin-releasing factor receptor 2/Corticotropin-releasing factor-binding protein; experiment: Dose Response confirmation of uHTS hits for small molecule antagonists of the CRF-binding protein and CRF-R2 receptor complex.; assay type: functional; conditions: read-out: IC50_Mean
[5] = system: Streptococcus; experiment: GAS UMAA2166 growth inhibition – luminescence, BacTiterGlo, counter-screen for streptokinase expression inhibitor project, dose response (AID 1915); assay type: functional, organism-based;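 also: potency for reduction of bacterial viability or growth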
[6] = target: T2, Streptokinase A (Streptococcus pyogenes serotype M1, UniProt P10520); experiment: viability-normalized secreted streptokinase activity reduction – plasminogen activation absorbance, OD405, dose response (AID 1914); assay type: functional, Streptococcus pyogenes M1 GAS;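 also: secreted streptokinase activity via plasminogen activation per viability signal from cell pellet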
T2 sequence (P10520 whole entry): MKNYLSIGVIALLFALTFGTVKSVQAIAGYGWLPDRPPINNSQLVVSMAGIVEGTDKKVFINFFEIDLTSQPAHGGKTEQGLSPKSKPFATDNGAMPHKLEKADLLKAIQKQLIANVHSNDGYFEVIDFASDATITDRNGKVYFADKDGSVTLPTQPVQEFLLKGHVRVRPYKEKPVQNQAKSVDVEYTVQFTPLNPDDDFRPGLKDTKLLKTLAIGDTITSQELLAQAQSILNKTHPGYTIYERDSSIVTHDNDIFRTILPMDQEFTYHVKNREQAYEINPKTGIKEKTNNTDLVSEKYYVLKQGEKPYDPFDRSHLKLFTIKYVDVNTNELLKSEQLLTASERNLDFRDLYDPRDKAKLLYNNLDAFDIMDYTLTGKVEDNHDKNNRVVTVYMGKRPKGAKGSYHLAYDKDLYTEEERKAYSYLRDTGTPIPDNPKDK

[7] = system: Streptococcus sp. 'group A'; experiment: Streptococcus pyogenes SK(-)GAS viability under kanamycin – luminescence, BacTiterGlo, confirmation, counter-screen for streptokinase expression inhibitor project, dose response (AID 1900); assay type: functional, organism-based
[8] = non-specific 3'UTR reporter inhibition in Clone20-Shn3RL – cell-based, Renilla luciferase, cherry-picked, counter-screen for Shn3 inhibitor project, dose response (AID 624133); assay type: functional
[9] = reduction of Shn3 3'UTR-driven luciferase in osteoblasts – cell-based, Clone20 osteoblasts, firefly luciferase, cherry-picked, dose response (AID 624132); assay type: functional;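 also: firefly luciferase luminescence from reporter carrying the Shn3 3'UTR in osteoblasts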
[10] = loss of viability in HepG2 cells – cell-based, CellTiter-Glo, cherry-picked, cytotoxicity control for Shn3 inhibitor project, dose response (AID 624134); assay type: functional
[11] = system: INS1; experiment: INS-1E survival protection against cytokine death – cell-based, luminescence, retest, dose response (AID 449756); assay type: functional; conditions: Rattus norvegicus;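 also: cell death triggered by IL-1 beta plus TNF-alpha plus IFN-gamma mixture; protective hits raise ATP signal compared with cytokine alone wells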
[12] = target: T3, Heat shock factor protein 1 (Mus musculus, UniProt P38532); experiment: decrease of HSF1-responsive luciferase luminescence – cell-based, NIH3T3, dose retest, confirmation (AID 2382); assay type: functional;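 also: NIH3T3 fibroblasts with HSF1-driven luciferase reporter stressed by proteasome inhibitor MG132; luminescence from HSF1-driven luciferase expression after 8 hours of MG132 stress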
T3 sequence (P38532 whole entry): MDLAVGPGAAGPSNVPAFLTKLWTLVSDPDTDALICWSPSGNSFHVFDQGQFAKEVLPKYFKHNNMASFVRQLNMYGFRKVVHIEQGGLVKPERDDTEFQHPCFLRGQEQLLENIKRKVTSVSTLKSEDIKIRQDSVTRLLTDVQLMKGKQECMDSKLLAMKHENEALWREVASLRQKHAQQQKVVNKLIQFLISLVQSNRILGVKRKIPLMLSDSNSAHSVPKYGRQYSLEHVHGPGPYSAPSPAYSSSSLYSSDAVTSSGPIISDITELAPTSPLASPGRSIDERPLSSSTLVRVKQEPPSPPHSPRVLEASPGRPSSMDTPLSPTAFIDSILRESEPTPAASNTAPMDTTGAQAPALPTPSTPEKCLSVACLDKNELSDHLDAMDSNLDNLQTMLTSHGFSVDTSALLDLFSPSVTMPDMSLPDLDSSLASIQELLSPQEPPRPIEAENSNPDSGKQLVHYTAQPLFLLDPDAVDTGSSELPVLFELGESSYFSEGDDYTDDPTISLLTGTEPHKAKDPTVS

[13] = target: T3, Heat shock factor protein 1; experiment: enhancement of HSF1-driven luciferase signal – cell-based, NIH3T3, luminescence, dose retest, confirmation (AID 435004); assay type: functional;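 also: stress induced by proteasome inhibitor MG132 added 30 min after compound; luciferase reporter driven by HSF1 response element in NIH3T3 cells; actives raise luminescence as potentiators of the MG132 stress response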
[14] = alpha-synuclein stem-loop luciferase translation blockers – H4 neuroglioma cells, luminescence, confirmation (AID 1988); assay type: functional, cell-based
[15] = luciferase reporter signal suppression in cells – H4 neuroglioma cells, luminescence, dose response (AID 1990); assay type: functional, cell-based
[16] = Luminescence Cell-Based Dose Response HTS to Identify Inhibitors of 5'UTR Stem-Loop Driven Prion Protein mRNA Translation in H4 Neuroglioblastoma Cells. [Related pubchem assays: 1827 (Project Summary), 1813 (Primary HTS)]; assay type: functional
[17] = target: Cytochrome P450 2C9 (Homo sapiens, UniProt P11712)
[18] = target: Cytochrome P450 2C19 (Homo sapiens, UniProt P33261); experiment: Cytochrome panel assay with activity outcomes. Panel member name: p450-cyp2c19 Compounds with AC50 equal or less than 10 uM are considered active; assay type: functional
Cytochrome P450 2C19, sequence (P33261 whole entry): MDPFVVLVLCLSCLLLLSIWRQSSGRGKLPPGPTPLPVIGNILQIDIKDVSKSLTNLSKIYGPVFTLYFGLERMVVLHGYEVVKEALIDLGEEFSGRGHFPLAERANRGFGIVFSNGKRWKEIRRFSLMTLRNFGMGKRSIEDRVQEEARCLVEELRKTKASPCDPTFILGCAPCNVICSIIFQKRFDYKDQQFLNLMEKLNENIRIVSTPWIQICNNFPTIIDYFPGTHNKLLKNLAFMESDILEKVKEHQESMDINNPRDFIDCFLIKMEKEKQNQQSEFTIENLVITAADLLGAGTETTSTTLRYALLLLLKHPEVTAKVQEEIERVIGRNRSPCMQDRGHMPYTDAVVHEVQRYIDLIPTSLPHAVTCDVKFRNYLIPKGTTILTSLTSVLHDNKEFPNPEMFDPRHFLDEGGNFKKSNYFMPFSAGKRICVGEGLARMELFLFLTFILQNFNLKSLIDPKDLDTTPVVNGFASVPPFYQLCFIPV

Cytochrome P450 2C9, sequence (P11712 whole entry): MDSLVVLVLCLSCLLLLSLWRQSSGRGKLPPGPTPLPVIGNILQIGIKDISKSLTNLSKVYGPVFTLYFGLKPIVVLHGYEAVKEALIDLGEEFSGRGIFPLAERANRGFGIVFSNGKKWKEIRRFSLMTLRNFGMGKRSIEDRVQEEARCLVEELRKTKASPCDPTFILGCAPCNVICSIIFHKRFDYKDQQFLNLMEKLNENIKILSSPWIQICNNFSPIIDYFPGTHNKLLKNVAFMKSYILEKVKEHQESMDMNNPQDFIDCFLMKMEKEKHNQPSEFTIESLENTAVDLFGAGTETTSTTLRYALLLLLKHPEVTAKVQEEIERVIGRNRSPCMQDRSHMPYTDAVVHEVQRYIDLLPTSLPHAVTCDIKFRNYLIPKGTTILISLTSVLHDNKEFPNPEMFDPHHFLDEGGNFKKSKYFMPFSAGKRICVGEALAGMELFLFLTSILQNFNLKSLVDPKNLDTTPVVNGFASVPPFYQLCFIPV

For `O=C(N/N=C/c1cc(Br)c(Br)o1)c1ccc2c(c1)OCCO2`, the EC50 [1] was > 150 µM (inconclusive) and the EC50 [2] was 3.24 µM (active).

In the case of `CC(=O)C1(O)CCC2C3CC(C)C4=CC(=O)C=CC4(C)C3(F)C(O)CC21C` (configuration not stated), the EC50 [3] is reported as > 53 µM (inactive) and the IC50 [4] is reported as > 47.1 µM (inactive).

For `Cc1ccc(CN2CC(C(=O)Nc3nnc(SCc4c(Cl)cccc4Cl)s3)CC2=O)cc1` (configuration not stated), the EC50 [5] was 37.2 µM (active), the EC50 [6] was 5.57 µM (active) and the EC50 [7] was 4.07 µM (active).

For `COCC1CCCCN1C(=O)c1cc(COc2ccc3ncccc3c2)on1` (configuration not stated), the AC50 [8] was 3.12 µM (active), the AC50 [9] was 0.33 µM (active) and the AC50 [10] was 28.9 µM (active). The AC50 [11] was 3.15 µM (active) and the EC50 [12] was > 195 µM (not active).

With `CCOC(=O)c1ccc(NC(=O)c2sc3nc4n(c(=O)c3c2C)CCC4)cc1` the EC50 [5] was 20.2 µM (active), the EC50 [6] was > 150 µM (not active) and the EC50 [7] was 1.48 µM (active).

With `CCOC(=O)c1cc(C#N)c(N2CCN(c3ccc(OC)cc3)CC2)nc1O` the EC50 [1] was > 150 µM (inconclusive) and the EC50 [2] was 0.046 µM (active).

With `CN(C/C=C/C#CC(C)(C)C)Cc1cccc2ccccc12` [TERBINAFINE HYDROCHLORIDE] the EC50 [1] was > 160 µM (inactive) and the EC50 [2] was 2.94 µM (inconclusive).

For `CCO/C(O)=C1\C(C)=Nc2nc3ccccc3n2C1c1ccncc1` (configuration not stated), the EC50 [13] was > 260 µM (inactive), the EC50 [14] was > 120 µM (not active) and the EC50 [15] was > 120 µM (not active). For the same compound, the EC50 [16] was > 120 µM (not active).

In the case of `COc1ccc2nc(N3C(=O)CNC3=S)sc2c1`, the EC50 [5] is reported as > 150 µM (not active), the EC50 [6] is reported as > 150 µM (not active) and the EC50 [7] is reported as 3.47 µM (active).

In the case of `COc1ccc2sc(-c3ccc(S(C)(=O)=O)cc3)c(C(=O)NCCc3c[nH]c4ccccc34)c2c1`, the EC50 [3] is reported as > 53 µM (inactive) and the IC50 [4] is reported as > 47.1 µM (inactive).

With `Cc1ccc(S(=O)(=O)N2CCN(c3ncnc4sccc34)CC2)cc1` the AC50 [8] was 5.22 µM (active), the AC50 [9] was 2.72 µM (active) and the AC50 [10] was 6.76 µM (active). The AC50 [11] was 5.64 µM (active).

With `CC12CCC(C(=O)Nc3ncc([N+](=O)[O-])s3)(OC1=O)C2(C)C` (configuration not stated) the AC50 [17] was 11.2 µM (inconclusive), the EC50 [3] was > 53 µM (inactive) and the AC50 [18] was “inconclusive”. The IC50 [4] was > 47.1 µM (inactive), the EC50 [1] was > 160 µM (inactive) and the EC50 [2] was 0.629 µM (active).

In the case of `Cc1cccc(N2CCN(S(=O)(=O)c3ccc(Cl)nc3)CC2C)c1` (configuration not stated), the EC50 [3] is reported as > 53 µM (inactive) and the IC50 [4] is reported as > 47.1 µM (inactive).

With `C=CCN1C(=O)NC(=O)/C(=C(/CC)Nc2ccccc2NC(=O)CC)C1=O` the EC50 [3] was > 53 µM (inactive) and the IC50 [4] was > 47.1 µM (inactive).

For `Oc1ccnc2c(Cl)cccc12`, the EC50 [3] was > 53 µM (inactive) and the IC50 [4] was > 47.1 µM (inactive).

In the case of `CCOc1ncccc1C(=O)NCCc1c[nH]c2ccccc12`, the EC50 [13] is reported as > 260 µM (inactive).

In the case of `Cc1ccc2nc(N3C(=O)C(O)=C(C(=O)c4ccco4)C3c3cccc(O)c3)sc2c1` (configuration not stated), the EC50 [3] is reported as > 53 µM (inactive) and the IC50 [4] is reported as < 0.368 µM (active).
